Laboratory results: patent US6413947B1, “Anilide derivative, production and use thereof” (Takeda Chemical Industries, Ltd., priority 1997, dated 2002)

How the values were obtained:
[1] = target: T1, human CCR5 (Homo sapiens, UniProt P51681); experiment: CCR5 antagonistic activity ([125I]-RANTES binding to CHO/CCR5 cells); details: Test Compound 1 μM, 100 pM [125I]-RANTES, room temperature 30 minutes; for inhibition at 1 µM: read-out: Inhibition Rate (%) to CCR5 binding
T1 construct: expressed in transfected cells; host or cells: CHO-K1 cells, geneticin-resistant clone CHO/CCR5
Experimental: Cloning of CCR5 gene was carried out by PCR (polymerase chain reaction) from human spleen cDNA. With using 0.5 ng of spleen cDNA (Toyobo, QUICK-Clone cDNA) as template, PCR was performed in DNA Thermal Cycler 480 (Perkin-Elmer) (reaction conditions: 30 cycles of 95° C. for 1 minute, 60° C. for 1 minute, and 75° C. for 5 minutes) by adding primer set, 5′-CAGGATCCGATG […]-3′ (25 pmol) and 5′-TCTAGATCACAAGCC CACAGATATTTCCTGCTCC-3′ (25 pmol), which were designed referring to nucleotide sequence of CCR5 gene reported by Samson et al. (Biochemistry, 35(11), 3362-3367 (1996)) and by using TaKaRa EX Taq (Takara Shuzo). The resultant PCR product was subjected to agarose gel electrophoresis to collect about 1.0 kb DNA fragment, which was subjected to Original TA Cloning Kit (Funakoshi) to carry out cloning of CCR5 gene.
The plasmid obtained in the above (1) was digested with restriction enzymes XbaI (Takara Shuzo) and BamHI (Takara Shuzo) and subjected to agarose gel electrophoresis to collect about 1.0 kb DNA fragment. The DNA fragment was mixed with plasmid pcDNA3.1 (Funakoshi) for expression in animal cells, said plasmid being digested with XbaI and BamHI, and they were ligated with DNA Ligation Kit Ver.2 (Takara Shuzo). The resulting plasmid was subjected to transformation of competent cell of E. coli JM109 (Takara Shuzo) to obtain plasmid pCKR5.
CHO-K1 cells were grown in 750 ml of tissue culture flask (Becton Dickinson) using Ham's F12 medium (Nihon Pharmaceutical) containing 10% fetal calf serum (Life Tech Oriental) and took off with 0.5 g/L trypsin-0.2 g/L EDTA (Life Tech Oriental). The cells were washed with PBS (Life Tech Oriental), centrifuged (1000 rpm, 5 minutes), and suspended in PBS. With using Gene Pulser (Bio-Rad Laboratories), DNA was introduced into the cells under the conditions shown below. That is, to the cuvette of 0.4 cm gap were added 8×10^6 cells and 10 μg of plasmid pCKR5 for expression of human CCR5, and electroporation was carried out under 0.25 kV of voltage and 960 μF of capacitance. The cells were transferred into Ham's F12 medium (Nihon Pharmaceutical) containing 10% fetal calf serum, and cultivated for 24 hours. The cells were again took off and centrifuged, and suspended in Ham's F12 medium (Nihon Pharmaceutical) containing 10% fetal calf serum and 500 μg/ml of geneticin (Life Tech Oriental). The suspension was diluted to give 1 cells/ml of the suspension, which was inoculated on 96 well plate (Becton Dickinson) to give geneticin resistant cells. The resulting geneticin resistant cells were cultivated in 96 well plate (Becton Dickinson), and cells expressing CCR5 were selected from the geneticin resistant cells. That is, in assay buffer (Ham's F12 medium containing 0.5% BSA and 20 mM HEPES (Wako Pure Chemical, pH7.2) to which was added 200 pM of [^125I]-RANTES (Amersham) as ligand, binding reaction was carried out at room temperature for 40 minutes, and the buffer was washed with cooled PBS. To the buffer was added 50 μl/well of 1M NaOH, and the mixture was stirred. Radioactivity was determined with γ-counter to select CHO/CCR5 cells which specifically bind to the ligand.
The CHO/CCR5 were inoculated on 96 well microplate (5×10^4 cells/well) and cultivated for 24 hours. […] Radio-activity was determined with Top-Count Micro Scintillation Counter (Packard Instrument, Inc.). […]

[2] = tested on: HIV-1 BA-L; experiment: Inhibitory effect on HIV-1 infection to MAGI-CCR5 cell; format: cell-based; details: 2 days
Experimental: The plasmid where β-galactosidase gene was ligated downstream of HIV-1 LTR was introduced into CD4 positive HeLa cell, to which human CCR5 was further introduced to obtain transformant MAGI-CCR5. By using said transformant MAGI-CCR5, degree of HIV-1 infection was calculated from β-galactosidase activity (blue color due to decomposition of 5-bromo-4-chloro-3-indolyl-β-D-galactopyranoside). Specifically, MAGI-CCR5 cells were suspended in DMEM medium containing 10% serum to prepare 5×10^4 cells/ml suspension. To each well of 96 well plate was inoculated 200 μl of the suspension, and the cells were cultivated at 37° C. overnight. The medium was removed by means of suction, and to the residue was added 100 μl of the above medium containing 1.6 μM of Test Compound 96 or 0.064 μM of Test Compound 248 and 100 μl of the above medium containing 300PFU of HIV-1 BA-L cells. The cells were cultivated at 37° C. for 2 days. The medium was removed by means of suction. To the residue was added 200 μl of cell fixative (PBS containing 1% formaldehyde and 0.2% glutaraldehyde), and the mixture was allowed to stand at room temperature for 5 minutes and washed twice with PBS. […] The number of blue cells was counted by microscope and defined as the number of cells infected with HIV-1.

[3] = tested on: HIV-1 BA-L; experiment: Inhibitory effect on HIV-1 infection to human PBMC; format: cell-based; details: human PBMC stimulated with PHA and IL-2, 7 days
Experimental: From normal person human peripheral blood mononuclear cells (PBMC) were separated, and the cells were stimulated with 10 μg/ml of PHA (Phytohemaglutinin) and 20 U/ml of interleukin-2 (IL-2) for 3 days. The cells were suspended in RPMI-1640 medium containing 20% serum to prepare 1×10^6/ml suspension. To the suspension were infected HIV-1 BA-L cells (20 ng as an amount of p24 antigen), and viruses were absorbed at 37° C. for 2 hours. The cells were washed and suspended in RPMI-1640 medium containing 20% serum and IL-2 20 U/ml to prepare 1×10^5/ml suspension. To the PBMC suspension was added the same amount of a solution which contains 2.0 μM of Test Compound 96 or 0.32 μM of Test Compound 248, and the cells were cultivated at 37° C. for 7 days in carbon dioxide gas incubator. The amount of p24 antigen in supernatant of the cultivated medium was determined by enzyme-linked immunosorbent assay (ELISA) and defined as degree of HIV-1 infection.

T1 sequence (P51681 whole entry): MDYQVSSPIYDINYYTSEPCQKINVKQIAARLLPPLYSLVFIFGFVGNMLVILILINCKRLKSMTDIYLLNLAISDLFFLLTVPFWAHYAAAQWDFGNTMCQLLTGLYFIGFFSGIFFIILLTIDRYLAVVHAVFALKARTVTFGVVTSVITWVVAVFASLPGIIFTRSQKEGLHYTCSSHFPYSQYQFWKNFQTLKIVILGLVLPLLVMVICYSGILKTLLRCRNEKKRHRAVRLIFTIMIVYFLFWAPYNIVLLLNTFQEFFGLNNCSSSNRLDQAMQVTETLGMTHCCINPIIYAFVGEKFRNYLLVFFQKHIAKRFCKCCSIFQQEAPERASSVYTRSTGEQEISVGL

Compound	Inhibition Rate (%) to CCR5 binding [1] [%]	inhibition at 1 µM [1] [%]	also measured
Cc1ccc(-c2ccc(/C=C/C(=O)Nc3ccc(CP4(=O)CCCCC4)cc3)s2)cc1 [Compound 209, (E)-N-(4-pentamethylenephosphorylmethylphenyl)-3-[5—(4-methylphenyl)thiophen-2-yl]acrylic amide]	80		
Cc1ccc(-c2ccc3c(c2)C=C(C(=O)Nc2ccc(C[N+](C)(C)C4CCOCC4)cc2)CCC3)cc1 [Compound 248, N,N-dimethyl-N-(4-(((2-(4-methylphenyl)-6,7-dihydro-5H-benzocyclohepten-8-yl)carbonyl)amino)benzyl)-N-(4-tetrahydropyranyl)ammonium chloride]		99	inhibition on HIV-1 infection (number of blue cells) ([2]; 100 μl medium containing 0.064 μM of Test Compound plus 100 μl medium with 300PFU HIV-1 BA-L): 100%; inhibition on HIV-1 infection (p24 antigen in supernatant, ELISA) ([3]; same amount of a solution containing 0.32 μM of Test Compound added): 74%
Cc1ccc(-c2ccc3c(c2)C=C(C(=O)Nc2ccc(C[N+]4(C)CCCCC4)cc2)CCO3)cc1 [Compound 96, 1—(N-(7—(4-methylphenyl)-2,3-dihydro-1-benzoxepin-4-carbonyl)-4-aminobenzyl)-1-methylpiperidinium iodide]			inhibition on HIV-1 infection (number of blue cells) ([2]; 100 μl medium containing 1.6 μM of Test Compound plus 100 μl medium with 300PFU HIV-1 BA-L): 92%; inhibition on HIV-1 infection (p24 antigen in supernatant, ELISA) ([3]; same amount of a solution containing 2.0 μM of Test Compound added): 96%
CCOc1ccc(-c2ccc3c(c2)C=C(C(=O)Nc2ccc(C[N+](C)(C)C4CCOCC4)cc2)CCO3)cc1 [Compound 250, N-(4-(((7-(4-ethoxyphenyl)-2,3-dihydro-1-benzoxepin-4-yl)carbonyl)amino)benzyl)-N,N-dimethyl-N-(4-tetrahydropyranyl)ammonium chloride]		96	

The next lines start with results.

Inhibition Rate (%) to CCR5 binding [1] [%]	Compound	inhibition at 1 µM [1] [%]	also measured
99	CC(C)(C)c1ccc(-c2ccc3c(c2)C=C(C(=O)Nc2ccc(CP4(=O)CCCCC4)cc2)CCO3)cc1 [Compound 180, N-(4—(pentamethylene)phosphorylmethylphenyl)-7—(4-tert-butylphenyl)-2,3-dihydro-1-benzoxepine-4-carboxamide]		
100	N-((7—(4-methylphenyl)-2,3-dihydro-1-benzoxepin-4-carbonyl)-2—(4-aminophenyl)ethyl)-N-methylpiperidinium iodide [Compound 100]		
